“And” between values parts separate entries of the source, which are not always exact repeats. Equal values may be shown once. Read-outs that look alike come from different tables or passages of the source.
Experiments:
[1] = tested on: Venturia inaequalis; assay: In vivo preventive test on Venturia (apples); settings: 10 days after inoculation
Protocol: The test is evaluated 10 days after the inoculation.

[2] = tested on: Leptosphaeria nodorum; assay: In vivo preventive Leptosphaeria nodorum test (wheat); settings: Table G1, 8 days after inoculation
Protocol: After the spray coating has been dried, the plants are sprayed with a spore suspension of Leptosphaeria nodorum.
(§1) The test is evaluated 8 days after the inoculation.

[3] = tested on: Septoria tritici; assay: In vivo preventive Septoria tritici test (wheat); settings: 21 days after inoculation
Protocol: After the spray coating has been dried, the plants are sprayed with a spore suspension of Septoria tritici.
The test is evaluated 21 days after the inoculation.

[4] = tested on: Alternaria alternata; assay: In vitro-Test with Alternaria alternata; format: cell-based
[5] = tested on: Septoria tritici; assay: In vitro-Test with Septoria tritici; format: cell-based; settings: compound alone
[6] = tested on: fish (Danio rerio) embryos; assay: In vivo ecotoxicity screening test on fish (Danio rerio); settings: active compound alone; fish embryos, 96 h, 28.5° C.
Protocol: with ECxi the Effect Concentration (EC) of each chemical i (in ppm) causing x % effect on the ecotoxicity test endpoint.
For each compound combination, the predicted ECx value is calculated. It is then compared to an experimentally measured value. The ratio of predicted versus measured effect for the combination (thereafter called the Model Deviation Ratio or MDR) is then calculated.
The environmental effect of the compound combinations was measured experimentally in laboratory ecotoxicity screening studies with fish (Danio rerio). […] Mortality was recorded after 96 h for each tested concentration and a reference control. […] Then, the MDR values were calculated.
• Solvent: 0.5% by weight dimethyl sulfoxide
This concentrate is then diluted with water to the desired a.i. concentration, leading to a maximal solvent concentration of 0.5% by weight. The compounds alone and the combinations were tested for five increasing concentrations between 0.01 and 1000 ppm a.i., (e.g. 0.1, 1.0, 10 and 100 ppm a.i). For the combinations, compounds A and B were mixed in a weight ratio of 5:1 to 1:5 and five increasing concentrations were tested for each ratio.

[7] = tested on: Alternaria solani; assay: In vivo preventive test on Alternaria (tomatoes); settings: Alternaria solani, 72 h, read-out: Efficacy in % found
Protocol: The plants are then placed in an incubation cabinet at approximately 20° C. and a relative atmospheric humidity of 100%.
The test is evaluated 3 days after the inoculation.

[8] = tested on: Puccinia triticina; assay: In vivo preventive Puccinia triticina test (wheat); settings: 8 days after inoculation
Protocol: After the spray coating has been dried, the plants are sprayed with a spore suspension of Puccinia triticina.
as §1

[9] = tested on: Pyrenophora teres; assay: In vitro-Test with Pyrenophora teres; format: cell-based
[10] = tested on: Pyricularia oryzae; format: cell-based
[11] = tested on: Phakopsora pachyrhizi; assay: In vivo preventive test on Phakopsora (soybeans); settings: 7 days after inoculation
[12] = tested on: Sphaerotheca fuliginea; assay: In vivo preventive test on Sphaerotheca (cucumbers); settings: Table D1, 7 days after inoculation
[13] = tested on: Blumeria graminis f.sp. hordei; assay: In vivo preventive Blumeria test (barley); settings: Table F1, 7 days after inoculation
[14] = tested on: Ustilago avenae; assay: In vitro-Test with Ustilago avenae; format: cell-based; settings: 5 ppm, compound alone

SMILES: CCCOc1nc2ccc(I)cc2c(=O)n1CCC [Example 13.004, proquinazid]
- Efficacy in % found ([1]; Table E1, 12.5 ppm a.i.): 0%
- Efficacy in % found ([1]; Table E1, 25 ppm a.i.): 0%
- Efficacy in % found ([1]; Table E1, 50 ppm a.i.): 0%
- Efficacy in % found ([2]; 250 ppm a.i.): 0%
- Efficacy in % found ([2]; 500 ppm a.i.): 14%
- Efficacy in % found ([2]; 1000 ppm a.i.): 14%
- Efficacy in % found ([3]; 250 ppm a.i.): 0%
- Efficacy in % found ([3]; 500 ppm a.i.): 0%
- Efficacy in % found ([3]; 1000 ppm a.i.): 0%
- Efficacy % ([4]; 0.8 ppm): 0%
- Efficacy % ([4]; 4 ppm): 0%
- Efficacy % ([5]; 20 ppm): 55%
- Efficacy % ([5]; 100 ppm): 28%
- Ecotoxicity LC50-96 h found [6]: 9.89 ppm a.i.

SMILES: COc1ccnc(C(=O)N[C@H]2COC(=O)[C@H](Cc3ccccc3)[C@@H](OC(=O)C(C)C)[C@H](C)OC2=O)c1OCOC(=O)C(C)C [Example 3.025, (3S,6S,7R,8R)-8-benzyl-3-[({3-[(isobutyryloxy)methoxy]-4-methoxypyridin-2-yl}carbonyl)amino]-6-methyl-4,9-dioxo-1,5-dioxonan-7-yl 2-methylpropanoate]
- pest or weed control at 5 ppm [7]: 18%
- pest or weed control at 10 ppm [7]: 18%
- pest or weed control at 20 ppm [7]: 58%
- pest or weed control at 37.5 ppm ([8]; Puccinia triticina, 192 h, read-out: Efficacy in % found, Table H1, 37.5 ppm a.i.): 22%
- pest or weed control at 75 ppm ([8]; Puccinia triticina, 192 h, read-out: Efficacy in % found, Table H1, 75 ppm a.i.): 67%
- pest or weed control at 150 ppm ([8]; Puccinia triticina, 192 h, read-out: Efficacy in % found, Table H1, 150 ppm a.i.): 89%
- pest or weed control at 37.5 ppm ([3]; Zymoseptoria tritici, 504 h, read-out: Efficacy in % found, 37.5 ppm a.i.): 13%
- pest or weed control at 150 ppm ([3]; Zymoseptoria tritici, 504 h, read-out: Efficacy in % found, 150 ppm a.i.): 63%
- Efficacy % ([9]; 100 ppm): 10%
- Efficacy % ([10]; 0.8 ppm): 91% and 67%
- Efficacy % ([10]; 4 ppm): 84% and 85%
- Efficacy % ([10]; 20 ppm): 100% and 72%
- Ecotoxicity LC50-96 h found [6]: 1.87 ppm a.i.
- Efficacy in % found ([11]; Table C2, 5 ppm a.i.): 23%
- Efficacy in % found ([11]; Table C2, 10 ppm a.i.): 40%
- Efficacy in % found ([11]; Table C2, 20 ppm a.i.): 63%

SMILES: O=C(Nc1ccccc1)N(Cc1ccc(Cl)cc1)C1CCCC1 [Example 4.005, pencycuron]
- Efficacy in % found ([1]; Table E1, 25 ppm a.i.): 0%
- Efficacy in % found ([1]; Table E1, 50 ppm a.i.): 0%
- Efficacy in % found ([1]; Table E1, 100 ppm a.i.): 4%
- Efficacy in % found ([2]; 62.5 ppm a.i.): 14%
- Efficacy in % found ([2]; 125 ppm a.i.): 14%
- Efficacy in % found ([2]; 250 ppm a.i.): 29%
- Efficacy in % found ([8]; 62.5 ppm a.i.): 0%
- Efficacy in % found ([3]; 62.5 ppm a.i.): 0%
- Efficacy in % found ([3]; 125 ppm a.i.): 0%
- Efficacy in % found ([3]; 250 ppm a.i.): 0%
- Efficacy % ([9]; 20 ppm): 17%
- Efficacy % ([9]; 100 ppm): 5%
- Efficacy % ([5]; 20 ppm): 8%
- Efficacy % ([5]; 100 ppm): 0%
- Ecotoxicity LC50-96 h found [6]: >200 ppm a.i.

SMILES: O=C(Cc1ccccc1)N/C(=N\OCC1CC1)c1c(C(F)(F)F)ccc(F)c1F [Example 15.008, cyflufenamid]
- Efficacy in % found ([1]; Table E2, 5 ppm a.i.): 0%
- Efficacy in % found ([1]; Table E2, 10 ppm a.i.): 0%
- Efficacy in % found ([1]; Table E2, 20 ppm a.i.): 4%
- Efficacy in % found ([2]; 250 ppm a.i.): 0%
- Efficacy in % found ([2]; 500 ppm a.i.): 0%
- Efficacy in % found ([2]; 1000 ppm a.i.): 0%
- Efficacy in % found ([8]; 250 ppm a.i.): 0%
- Efficacy in % found ([8]; 500 ppm a.i.): 0%
- Efficacy in % found ([8]; 1000 ppm a.i.): 22%
- Efficacy in % found ([3]; 250 ppm a.i.): 14%
- Efficacy in % found ([3]; 500 ppm a.i.): 29%
- Efficacy in % found ([3]; 1000 ppm a.i.): 29%
- Efficacy % ([10]; 4 ppm): 17%
- Efficacy % ([10]; 20 ppm): 91%
- Ecotoxicity LC50-96 h found [6]: 5.2 ppm a.i.

SMILES: CC(C)(C)[C@@H](O)[C@@H](Cc1ccc(Cl)cc1)n1cncn1 (racemic) [Example 1.015, paclobutrazol]
- Efficacy % ([4]; 1 ppm): 0%
- Efficacy % ([5]; 1 ppm): 13%

SMILES: CON=C(C(=O)OC)c1ccccc1CON=C(C)c1cccc(C(F)(F)F)c1 [Example 3.020, trifloxystrobin]
- pest or weed control at 2.5 ppm ([8]; Puccinia triticina, 192 h, Table H1, 2.5 ppm a.i., read-out: Efficacy in % found): 0%
- pest or weed control at 5 ppm ([8]; Puccinia triticina, 192 h, Table H1, 5 ppm a.i., read-out: Efficacy in % found): 0%
- pest or weed control at 10 ppm ([8]; Puccinia triticina, 192 h, Table H1, 10 ppm a.i., read-out: Efficacy in % found): 11%
- pest or weed control at 2.5 ppm ([3]; Zymoseptoria tritici, 504 h, 2.5 ppm a.i., read-out: Efficacy in % found): 29%
- pest or weed control at 5 ppm ([3]; Zymoseptoria tritici, 504 h, 5 ppm a.i., read-out: Efficacy in % found): 29%
- pest or weed control at 10 ppm ([3]; Zymoseptoria tritici, 504 h, 10 ppm a.i., read-out: Efficacy in % found): 29%
- Efficacy % ([9]; 5 ppm): 6%
- Efficacy % ([10]; 5 ppm): 98%
- Efficacy % ([5]; 5 ppm): 90%
- Ecotoxicity LC50-96 h found [6]: 0.24 ppm a.i.

SMILES: CC(C)(C)C(O)(CCc1ccc(Cl)cc1)Cn1cncn1 (centres unmarked) [Example 1.021, tebuconazole]
- Efficacy in % found ([1]; Table E1, 2.5 ppm a.i.): 4%
- Efficacy in % found ([1]; Table E1, 5 ppm a.i.): 34%
- Efficacy in % found ([1]; Table E1, 10 ppm a.i.): 44%
- Efficacy in % found ([8]; 25 ppm a.i.): 22%
- Efficacy in % found ([8]; 50 ppm a.i.): 78%
- Efficacy in % found ([8]; 100 ppm a.i.): 89%
- Efficacy in % found ([3]; 25 ppm a.i.): 0%
- Efficacy in % found ([3]; 50 ppm a.i.): 0%
- Efficacy in % found ([3]; 100 ppm a.i.): 0%
- Efficacy % ([4]; 0.04 ppm): 19%
- Efficacy % ([4]; 0.2 ppm): 24%
- Efficacy % ([4]; 1 ppm): 36%
- Efficacy % ([10]; 0.2 ppm): 87%
- Efficacy % ([10]; 1 ppm): 87% and 89%
- Ecotoxicity LC50-96 h found [6]: 19.7 ppm a.i.
- Efficacy in % found ([12]; 2.5 ppm a.i.): 37%
- Efficacy in % found ([12]; 5 ppm a.i.): 69%
- Efficacy in % found ([12]; 10 ppm a.i.): 83%

SMILES: COCC(=O)N(c1c(C)cccc1C)C(C)C(=O)OC (centres unmarked) [Example 12.003, metalaxyl]
- Efficacy in % found ([1]; Table E2, 50 ppm a.i.): 11%
- Efficacy in % found ([1]; Table E2, 100 ppm a.i.): 11%
- Efficacy in % found ([1]; Table E2, 200 ppm a.i.): 19%
- Efficacy in % found ([2]; 250 ppm a.i.): 29%
- Efficacy in % found ([2]; 500 ppm a.i.): 0%
- Efficacy in % found ([2]; 1000 ppm a.i.): 0%
- Efficacy in % found ([8]; 1000 ppm a.i.): 30% and 44%
- Efficacy in % found ([3]; 250 ppm a.i.): 0%
- Efficacy in % found ([3]; 500 ppm a.i.): 0%
- Efficacy in % found ([3]; 1000 ppm a.i.): 0%
- Ecotoxicity LC50-96 h found [6]: >200 ppm a.i.
- Efficacy in % found ([11]; Table C3, 50 ppm a.i.): 0%
- Efficacy in % found ([11]; Table C3, 100 ppm a.i.): 0%
- Efficacy in % found ([11]; Table C3, 200 ppm a.i.): 23%

SMILES: O=C(NCCc1ncc(C(F)(F)F)cc1Cl)c1ccccc1C(F)(F)F [Example 2.005, fluopyram]
- Efficacy in % found ([13]; 15 ppm a.i.): 0%
- Efficacy in % found ([13]; 30 ppm a.i.): 0%
- Efficacy in % found ([13]; 60 ppm a.i.): 29%
- Efficacy in % found ([8]; 15 ppm a.i.): 0%
- Efficacy in % found ([8]; 30 ppm a.i.): 0%
- Efficacy in % found ([8]; 60 ppm a.i.): 0%
- Efficacy in % found ([8]; Table H1, 15 ppm a.i.): 0%
- Efficacy in % found ([8]; Table H1, 30 ppm a.i.): 0%
- Efficacy in % found ([8]; Table H1, 60 ppm a.i.): 33%
- Efficacy in % found ([3]; 30 ppm a.i.): 38% and 29%
- Efficacy in % found ([3]; 60 ppm a.i.): 88% and 71%
- Efficacy % ([5]; 0.04 ppm): 43% and 22%
- Efficacy % ([5]; 0.2 ppm): 93% and 67%
- Efficacy % [14]: 0%
- Ecotoxicity LC50-96 h found [6]: >200 ppm a.i.

From patent publication US20200008426A1, “ACTIVE COMPOUND COMBINATIONS” (BAYER AKTIENGESELLSCHAFT, priority 2017, published 2020)
